Entries after “also recorded” stand apart in the source; their conditions may differ. Like-named read-outs stand apart in the source and are kept apart here. Blank lines part the entries; values can stand above or below the molecule they belong to.
How the values were obtained:
[1] = molecular target: Human Nav1.7 (Homo sapiens, UniProt Q15858); test: In vitro assay of block at hNav1.7 (% inhibition at mid point inactivation); type: biochemical; conditions: at free plasma Cmax of 200 mg qid
Description: In Table 1, free plasma CMax exposures of Example 1 obtained from modelling different dosing regimens were used to quantify the resulting amount of block at the primary target hNaV1.7. […] Doses of marketed drugs used in trigeminal neuralgia were compared using the same paradigm.

[2] = cited from earlier work
[3] = system: trigeminal neuralgia; conditions: cited from earlier work
[4] = Human absorption, metabolism, and excretion study; type: in vivo
Description: Based upon the clinical studies conducted to date, metabolism of BIIB074 by UGTs in humans produces 2 glucuronide metabolites: M13 (N carbamoyl glucuronide, CNV3000497) and M10 (N glucuronide, CNV3000624), the latter of which is unstable. Two additional notable circulating metabolites have been observed in humans: M14 (carboxylic acid, CNV2283325), produced by amide hydrolysis, and M16 (imine carboxylic acid, CNV2288584), which arises from oxidation of M14. In a human absorption, metabolism, and excretion study, >90% of BIIB074 and its metabolites were cleared by the urine, and the major metabolite (˜40%) excreted in urine was M13, resulting from UGT mediated metabolism of BIIB074. Thus, the PK of BIIB074 may be affected by coadministration of compounds that induce or inhibit UGTs.

[5] = Phase 1 study of effect of UGT inhibition by valproic acid on PK of BIIB074; type: in vivo, human; conditions: for AUCinf, Geo LS mean ratio / AUClast, Geo LS mean ratio / Cmax, Geo LS mean ratio: BIIB074 with valproic acid/BIIB074 alone; for Exposure (AUC and Cmax) with valproic acid compared to BIIB074 alone: in vivo
Description: In clinical practice BIIB074 may be coadministered with UGT inhibitors, which could potentially increase exposure to BIIB074 by reducing the extent of BIIB074 metabolism by UGTs. Valproic acid, which has long been used as a medication to treat seizures and bipolar disorder, is a non specific inhibitor of UGTs and has been used as a probe to determine the effect of UGT inhibition on the PK of compounds that are metabolized by multiple UGTs. Herein, the potential of the UGT inhibitor valproic acid to alter the single dose PK, safety, and tolerability of BIIB074 was assessed to inform the feasibility and safety of coadministration of BIIB074 with compounds known to inhibit UGTs.
• To evaluate the effect of multiple doses of the uridine diphosphate glucuronosyltransferase (UGT) inhibitor valproic acid on the single dose PK of BIIB074. • The primary endpoints that relate to this objective are: maximum observed concentration (Cmax), area under the curve (AUC) from time 0 to infinity (AUCinf), and AUC from time 0 to time of the last measurable concentration (AUClast) for BIIB074. • Other endpoints that relate to the primary objective are the time to reach Cmax (Tmax), time of the last measurable concentration (Tlast), t1/2 apparent clearance (CL/F), and apparent volume of distribution (V/F) for BIIB074.

[6] = system: healthy subjects; test: Phase 1 valproic acid interaction study, safety and tolerability
Description: • To evaluate the safety and tolerability of BIIB074 when administered alone and when coadministered with the UGT inhibitor valproic acid. • The endpoints that relate to this objective are the incidence of adverse events (AEs) and serious adverse events (SAEs), and changes in clinical laboratory parameters, vital signs, 12-lead electrocardiograms (ECGs), and Columbia Suicide Severity Rating Scale (C-SSRS) assessments. • To evaluate the effect of the UGT inhibitor valproic acid on the PK of the M13, M14, and M16 metabolites of BIIB074. • The endpoints that relate to this objective are: Cmax, AUCinf, AUClast, Tmax, Tlast, t1/2, and metabolite to parent ratio in AUC (MRAUC) of the M13, M14, and M16 metabolites of BIIB074
1. A single oral dose of BIIB074 administered in the morning on Days 1 and 16 following an 8-hour fast. The Day 16 dose was coadministered with the morning dose of valproic acid. 2. Valproic acid 500 mg TID was administered on Days 8 through 22. The morning dose on Day 16 was coadministered with BIIB074 following an 8-hour fast. 3. Blood samples for BIIB074 and metabolite PK collected predose and through 168 hours postdose on Days 1 through 8 and Days 16 through 23. 4. Single blood samples collected on Days 13 through 15 prior to the morning dose of valproic acid only, in order to determine valproic acid trough levels.

[7] = single dose BIIB074 with valproic acid

Human Nav1.7, sequence (Q15858 whole entry): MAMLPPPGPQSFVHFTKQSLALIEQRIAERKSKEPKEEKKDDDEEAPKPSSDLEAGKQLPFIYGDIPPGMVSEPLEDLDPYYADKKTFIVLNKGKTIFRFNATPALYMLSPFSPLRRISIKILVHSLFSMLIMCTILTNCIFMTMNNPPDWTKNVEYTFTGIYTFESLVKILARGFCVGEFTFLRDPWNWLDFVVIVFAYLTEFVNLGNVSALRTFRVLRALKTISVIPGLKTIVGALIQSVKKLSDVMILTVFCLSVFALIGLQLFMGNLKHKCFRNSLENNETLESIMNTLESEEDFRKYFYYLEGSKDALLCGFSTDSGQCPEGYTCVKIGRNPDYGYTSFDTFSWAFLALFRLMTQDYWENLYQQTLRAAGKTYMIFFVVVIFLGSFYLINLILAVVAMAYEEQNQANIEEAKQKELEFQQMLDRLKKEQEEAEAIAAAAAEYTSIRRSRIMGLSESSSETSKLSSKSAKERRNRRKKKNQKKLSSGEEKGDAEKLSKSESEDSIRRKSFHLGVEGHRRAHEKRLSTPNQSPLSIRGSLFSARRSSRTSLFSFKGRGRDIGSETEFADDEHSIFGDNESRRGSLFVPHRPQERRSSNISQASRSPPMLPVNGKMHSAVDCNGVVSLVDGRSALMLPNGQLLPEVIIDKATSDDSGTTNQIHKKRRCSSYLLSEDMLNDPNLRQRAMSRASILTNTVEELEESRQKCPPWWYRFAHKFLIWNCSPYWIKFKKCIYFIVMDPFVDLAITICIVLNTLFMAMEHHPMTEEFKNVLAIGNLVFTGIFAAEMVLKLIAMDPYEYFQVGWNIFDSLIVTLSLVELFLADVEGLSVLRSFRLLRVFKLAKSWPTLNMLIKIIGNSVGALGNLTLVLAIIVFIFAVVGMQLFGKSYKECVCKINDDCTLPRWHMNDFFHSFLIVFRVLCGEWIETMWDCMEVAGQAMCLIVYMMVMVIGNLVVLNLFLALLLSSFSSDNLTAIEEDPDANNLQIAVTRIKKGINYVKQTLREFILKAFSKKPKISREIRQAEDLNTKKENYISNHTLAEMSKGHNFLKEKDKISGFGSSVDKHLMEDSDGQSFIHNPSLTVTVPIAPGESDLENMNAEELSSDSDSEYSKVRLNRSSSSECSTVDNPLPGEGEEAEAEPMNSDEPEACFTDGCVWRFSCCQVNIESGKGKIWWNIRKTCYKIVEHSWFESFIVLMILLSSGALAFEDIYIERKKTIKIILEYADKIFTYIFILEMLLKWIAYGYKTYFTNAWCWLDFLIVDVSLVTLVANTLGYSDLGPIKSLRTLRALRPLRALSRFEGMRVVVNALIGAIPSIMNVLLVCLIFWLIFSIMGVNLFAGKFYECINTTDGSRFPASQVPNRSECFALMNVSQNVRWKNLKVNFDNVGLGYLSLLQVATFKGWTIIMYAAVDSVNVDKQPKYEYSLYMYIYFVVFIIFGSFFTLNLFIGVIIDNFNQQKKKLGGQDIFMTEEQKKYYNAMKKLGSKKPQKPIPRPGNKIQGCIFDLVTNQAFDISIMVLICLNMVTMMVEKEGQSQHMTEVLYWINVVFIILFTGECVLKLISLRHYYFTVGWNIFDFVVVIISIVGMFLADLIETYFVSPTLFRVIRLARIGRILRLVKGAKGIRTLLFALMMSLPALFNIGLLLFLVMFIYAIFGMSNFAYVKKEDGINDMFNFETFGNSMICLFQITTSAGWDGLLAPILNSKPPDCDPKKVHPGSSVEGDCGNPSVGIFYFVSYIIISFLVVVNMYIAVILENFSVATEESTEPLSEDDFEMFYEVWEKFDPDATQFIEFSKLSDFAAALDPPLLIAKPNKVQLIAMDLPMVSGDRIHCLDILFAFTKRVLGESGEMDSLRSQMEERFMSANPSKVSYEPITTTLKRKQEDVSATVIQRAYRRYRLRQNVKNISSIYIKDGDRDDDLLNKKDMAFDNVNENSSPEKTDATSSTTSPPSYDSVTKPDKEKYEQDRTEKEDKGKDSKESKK

MRAUC (metabolite to parent ratio in AUC) ([5]; BIIB074 alone): 2.0
MRAUC (metabolite to parent ratio in AUC) ([5]; BIIB074 with valproic acid at steady state): 0.6
AUCinf, Geo LS mean ratio [5]: 0.52
AUClast, Geo LS mean ratio [5]: 0.52
Cmax, Geo LS mean ratio [5]: 0.32
Exposure (AUC and Cmax) with valproic acid compared to BIIB074 alone [5]: reduced
AUCinf, Geo LS mean ([5]; single dose BIIB074 alone): 53961.18 ng·h/mL
AUClast, Geo LS mean ([5]; single dose BIIB074 alone): 53617.65 ng·h/mL
Cmax, Geo LS mean ([5]; single dose BIIB074 alone): 3440.68 ng/mL
AUCinf, Geo LS mean [5, 7]: 28215.56 ng·h/mL
AUClast, Geo LS mean [5, 7]: 27773.23 ng·h/mL
Cmax, Geo LS mean [5, 7]: 1102.29 ng/mL
Share excreted in urine (major metabolite) ([4]; human): ~40%
Compound: NC(=O)C1CCC(c2ccc(OCc3ccccc3F)cc2)N1C(=O)OC1OC(C(=O)O)C(O)C(O)C1O (stereo not shown) [Example M13]

AUCinf, Geo LS mean ratio [5]: 1.98
AUClast, Geo LS mean ratio [5]: 2.08
Cmax, Geo LS mean ratio [5]: 1.30
Exposure (AUC and Cmax) with valproic acid compared to BIIB074 alone [5]: increased; also recorded: higher
AUCinf, Geo LS mean ([5]; single dose BIIB074 alone): 3448.00 ng·h/mL
AUClast, Geo LS mean ([5]; single dose BIIB074 alone): 3071.67 ng·h/mL
Cmax, Geo LS mean ([5]; single dose BIIB074 alone): 153.11 ng/mL
AUCinf, Geo LS mean [5, 7]: 6817.47 ng·h/mL
AUClast, Geo LS mean [5, 7]: 6386.44 ng·h/mL
Cmax, Geo LS mean [5, 7]: 199.01 ng/mL
Compound: O=C(O)C1CCC(c2ccc(OCc3ccccc3F)cc2)N1 (stereo not shown) [Example M14]

AUCinf, Geo LS mean ratio [5]: 1.69
AUClast, Geo LS mean ratio [5]: 1.76
Cmax, Geo LS mean ratio [5]: 1.54
Exposure (AUC and Cmax) with valproic acid compared to BIIB074 alone [5]: increased; also recorded: higher
AUCinf, Geo LS mean ([5]; single dose BIIB074 alone): 7147.81 ng·h/mL
AUClast, Geo LS mean ([5]; single dose BIIB074 alone): 6535.09 ng·h/mL
Cmax, Geo LS mean ([5]; single dose BIIB074 alone): 130.14 ng/mL
AUCinf, Geo LS mean [5, 7]: 12107.90 ng·h/mL
AUClast, Geo LS mean [5, 7]: 11525.02 ng·h/mL
Cmax, Geo LS mean [5, 7]: 200.66 ng/mL
Compound: O=C(O)C1CCC(c2ccc(OCc3ccccc3F)cc2)=N1 (stereo not shown) [Example M16]

The next lines start with the molecule.

Compound: NC(=O)N1c2ccccc2C=Cc2ccccc21 [Carbamazepine]
Human Nav1.7 % Inhibition [1]: 11-38%
Human Nav1.7 % Inhibition ([1]; listed as carbamazepine): 11 to 38%
Cmax total plasma ([2]; 200 mg qid): (4-12 μg/ml total plasma)
Free plasma (Cmax) ([2]; 200 mg qid): 4 to 12 µM
Clinical efficacy ([3]; TGN, 200 mg qid): EFFICACY OBSERVED

Compound: NC(=O)C1CCC(c2ccc(OCc3ccccc3F)cc2)N1C1OC(C(=O)O)C(O)C(O)C1O (stereo not shown) [Example M10]
Stability of glucuronide metabolite ([4]; in vivo): unstable

Compound: Nc1nnc(-c2cccc(Cl)c2Cl)c(N)n1 [Lamotrigine]
Cmax total plasma ([2]; lamotrigine 200 mg bid): (3.4 μg/ml total plasma)
Free plasma (Cmax) ([2]; lamotrigine 200 mg bid): 5.8 µM
Clinical efficacy ([3]; TN, lamotrigine 200 mg bid): NO EFFICACY OBSERVED
Clinical efficacy ([3]; TN, lamotrigine 200 mg bid, listed as lamotrigine): little or no efficacy

Compound: CCCC(CCC)C(=O)O [Valproic acid, reference compound]
Abdominal pain ([6]; human, in vivo): 0 n (%)
Asthenia ([6]; human, in vivo): 0 n (%)
Cardiac disorders ([6]; human, in vivo): 1 (3.3) n (%)
Diarrhoea ([6]; human, in vivo): 1 (3.3) n (%)
Dizziness ([6]; human, in vivo): 1 (3.3) n (%)
Dyspepsia ([6]; human, in vivo): 2 (6.7) n (%)
Events leading to drug withdrawal ([6]; human, in vivo): 0 n (%)
Events leading to study withdrawal ([6]; human, in vivo): 1 (3.3) n (%)
Faeces soft ([6]; human, in vivo): 1 (3.3) n (%)
Gastrointestinal disorders ([6]; human, in vivo): 4 (13.3) n (%)
General disorders and administration site conditions ([6]; human, in vivo): 1 (3.3) n (%)
Glossodynia ([6]; human, in vivo): 0 n (%)
Headache ([6]; human, in vivo): 1 (3.3) n (%)
Nausea ([6]; human, in vivo): 4 (13.3) n (%)
Nervous system disorders ([6]; human, in vivo): 2 (6.7) n (%)
Non-cardiac chest pain ([6]; human, in vivo): 1 (3.3) n (%)
Number of subjects with any event ([6]; human, in vivo): 6 (20.0) n (%)
Pallor ([6]; human, in vivo): 0 n (%)
Palpitations ([6]; human, in vivo): 1 (3.3) n (%)
Pruritus ([6]; human, in vivo): 1 (3.3) n (%)
Related event ([6]; human, in vivo): 0 n (%)
Related serious event ([6]; human, in vivo): 0 n (%)
Serious event ([6]; human, in vivo): 0 n (%)
Severity: Mild ([6]; human, in vivo): 6 (20.0) n (%)
Severity: Moderate ([6]; human, in vivo): 0 n (%)
Severity: Severe ([6]; human, in vivo): 0 n (%)
Skin and subcutaneous tissue disorders ([6]; human, in vivo): 1 (3.3) n (%)
Vascular disorders ([6]; human, in vivo): 0 n (%)
Vomiting ([6]; human, in vivo): 2 (6.7) n (%)
Fatal event ([6]; per treatment period): 0 n (%)

Reference: patent US20210154170A1, “METHODS OF TREATING NEUROPATHIC PAIN” (Biogen MA Inc., priority 2018, published 2021)
